According to BindingDB's records for doi:10.1021/np020058m (Kyoto Pharmaceutical University, 2002):

Biological target: Aldo-keto reductase family 1 member B1 (Rattus norvegicus, UniProt P07943)
Assay: Inhibition of aldose reductase in rat lens homogenates by fluorophotometer

Row | IC50 | Structure (SMILES)
1 | 18 µM | CC(=O)O[C@H]1[C@H](Oc2c(-c3ccc(O)c(O)c3)oc3cc(O)cc(=O)c-3c2O)O[C@H](CO[C@@H]2O[C@@H](C)[C@H](O)[C@@H](O)[C@H]2O)[C@@H](O)[C@@H]1O [3-O-alpha-L-rhamnopyranosyl(1->6)-2''-O-acetyl-beta-D-glucopyranoside]
2 | 18 µM | C[C@@H]1O[C@@H](O[C@H]2[C@H](Oc3c(-c4ccc(O)c(O)c4)oc4cc(O)cc(=O)c-4c3O)O[C@H](CO)[C@H](O)[C@@H]2O)[C@H](O)[C@H](O)[C@H]1O [quercetin 3-O-neohesperidoside]
